This is an account of results in US9603793B2, “Nano / micro bubbles for drug delivery” (National Tsing Hua University, priority 2014, dated 2017).

One assay relates to cells. Nature of the assay: Cell images of cells co-cultured with the components (FITC-insulin transmission). It is filed as cell-based. The note with it: cells co-cultured with the component; stained with Cld 4, E-cadherin and DAPI; FIG. 3.
The nature of assay [1]: Pharmacokinetic test of nano/micro bubbles (plasma insulin and blood glucose). In kind it is in vivo. The note with it: subcutaneous injection of insulin 5 IU/kg; 0 to 10 hours; FIG. 5b. As to the method: Pharmacokinetic Test of Nano/Micro Bubbles In the present example, groups comprising nano/micro bubbles of the present invention (containing 30 IU/kg of insulin), oral administration (30 IU/kg of insulin) and subcutaneous injection of insulin (5 IU/kg) are compared. The change rates in plasma insulin and blood glucose concentration from 0 to 10 hours after subjects taking insulin or injected with insulin were recorded respectively, and the results are illustrated in FIGS. 5a and 5b.

As for `O=C(O)CN(CCN1CC(=O)OC(=O)C1)CCN1CC(=O)OC(=O)C1` [DTPA dianhydride, diethylenetriaminepentaacetic dianhydride], in the assay on cells, the “transmission of FITC-insulin (paracellular / transcellular pathway)” value is “can promote transmission of FITC-insulin via paracellular pathway”.

For `CCCCCCCCCCCCOS(=O)(=O)[O-].[Na+]` [SDS, sodium dodecyl sulfate], the “transmission of FITC-insulin (paracellular / transcellular pathway)” value in the assay on cells was “can promote transmission of FITC-insulin via both of paracellular pathway and transcellular pathway”.

Turning to insulin, the “change rate of the blood glucose” value in assay [1] is “rapidly declined and rose again”.
